In ChEMBL document CHEMBL1124928, “Inhibition of monoamine oxidases A and B by simple isoquinoline alkaloids: racemic and optically active 1,2,3,4-tetrahydro-, 3,4-dihydro-, and fully aromatic isoquinolines” (J Med Chem, 1990):
Counter-ions that a name gives are not always drawn.

Tests used:
[1] = target: T1, Amine oxidase [flavin-containing] A (Homo sapiens, UniProt P21397); assay: Compounds were tested for inhibition against human placental Monoamine oxidase A (mixed inhibition was observed)
T1 sequence (P21397 whole entry): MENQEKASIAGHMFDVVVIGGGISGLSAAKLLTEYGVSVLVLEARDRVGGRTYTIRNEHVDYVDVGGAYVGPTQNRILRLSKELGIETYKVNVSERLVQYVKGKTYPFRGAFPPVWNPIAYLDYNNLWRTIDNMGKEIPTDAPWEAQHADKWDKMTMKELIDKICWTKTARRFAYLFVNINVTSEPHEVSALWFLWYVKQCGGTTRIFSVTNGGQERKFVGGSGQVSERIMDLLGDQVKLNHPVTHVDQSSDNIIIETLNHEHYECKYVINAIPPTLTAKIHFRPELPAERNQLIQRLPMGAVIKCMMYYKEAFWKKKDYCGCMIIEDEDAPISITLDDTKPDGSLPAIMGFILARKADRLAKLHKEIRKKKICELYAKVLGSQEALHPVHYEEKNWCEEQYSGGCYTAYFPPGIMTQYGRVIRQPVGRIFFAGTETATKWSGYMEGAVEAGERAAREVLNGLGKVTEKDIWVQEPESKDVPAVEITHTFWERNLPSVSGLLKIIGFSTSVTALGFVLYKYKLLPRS

[2] = target: T2, Amine oxidase [flavin-containing] B (Homo sapiens, UniProt P27338); assay: Compounds were tested for inhibition against human liver Monoamine oxidase B (competitive inhibition was observed)
T2 sequence (P27338 whole entry): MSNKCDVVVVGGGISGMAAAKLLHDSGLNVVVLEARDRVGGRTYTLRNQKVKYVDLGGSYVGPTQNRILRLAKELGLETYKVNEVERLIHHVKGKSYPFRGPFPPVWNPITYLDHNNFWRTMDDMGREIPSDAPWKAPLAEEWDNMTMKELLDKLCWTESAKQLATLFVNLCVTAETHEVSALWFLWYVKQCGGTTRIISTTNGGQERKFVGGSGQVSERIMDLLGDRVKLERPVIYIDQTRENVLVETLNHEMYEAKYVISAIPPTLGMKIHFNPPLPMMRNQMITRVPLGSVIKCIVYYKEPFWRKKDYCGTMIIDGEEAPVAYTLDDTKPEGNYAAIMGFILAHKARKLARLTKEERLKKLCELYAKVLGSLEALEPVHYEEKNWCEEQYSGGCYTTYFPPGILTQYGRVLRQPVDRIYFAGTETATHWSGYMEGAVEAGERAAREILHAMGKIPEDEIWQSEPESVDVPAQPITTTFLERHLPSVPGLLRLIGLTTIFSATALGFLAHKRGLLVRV

[3] = target: T1, Amine oxidase [flavin-containing] A
[4] = target: T2, Amine oxidase [flavin-containing] B; assay: Compounds were tested for inhibition against human liver Monoamine oxidase B (mixed inhibition was observed)
[5] = target: T1, Amine oxidase [flavin-containing] A; assay: Compound was tested for inhibition against human placental Monoamine oxidase A (competitive inhibition was observed)

COc1cc2c(cc1O)CCN(C)[C@H]2C (racemic)
Ki [1]: 70 µM | Ki [2]: 2300 µM

COc1cc2ccncc2c(OC)c1OC
Ki [3]: 41 µM

COc1cc2c(cc1O)C(C)NCC2 (racemic)
Ki [3]: 34 µM

COc1c2c(c(OC)c(OC)c1OC)C(C)=NCC2
Ki [3]: 10 µM

CC1c2cc(O)c(O)cc2CCN1C (racemic)
Ki [3]: 36 µM

COc1c2c(c(OC)c(OC)c1OC)C(C)NCC2 (racemic)
Ki [3]: 1000 µM

COc1cc2c(cc1O)C(C)=NCC2
Ki [3]: 13 µM

COc1c2c(c(OC)c(OC)c1OC)CN(C)CC2 [WEBERINE]
Ki [3]: 260 µM | Ki [2]: 1900 µM

COc1cc2c(cc1OC)[C@H](C)N(C)CC2 [CARNEGINE HYDROCHLORIDE]
Ki [3]: 102 µM | Ki [4]: 1600 µM

COc1cc2c(cc1O)CCN=C2C
Ki [3]: 80 µM

COc1c2c(c(OC)c(OC)c1OC)CNCC2 [NORWEBERINE]
Ki [1]: 700 µM | Ki [4]: 580 µM

CN1CCc2ccccc2C1
Ki [2]: 1 µM

C[N+]1=Cc2ccccc2CC1
Ki [3]: 130 µM | Ki [2]: 76 µM

COc1cc2c(C)nccc2cc1O [listing 1 of 2 here]
Ki [3]: 150 µM

COc1cc2c(c(OC)c1OC)C(C)NCC2 (racemic)
Ki [3]: 170 µM

C[C@H]1NCCc2cc(O)c(O)cc21
Ki [3]: 31 µM

COc1cc2c(cc1OC)[C@@H](C)NCC2
Ki [3]: 6 µM

Cc1nccc2cc(O)c(O)cc12
Ki [1]: 130 µM

COc1cc2c(C)nccc2cc1O [listing 2 of 2 here]
Ki [3]: 130 µM

COc1cc2c(cc1OC)CC[N+](C)=C2
Ki [3]: 6 µM

CN1CCc2cc(O)c(O)cc2C1
Ki [3]: 1300 µM

COc1cc2c(cc1OC)[C@@H](C)N(C)CC2
Ki [3]: 2 µM

COc1ccc2c(c1)CC[N+](C)=C2
Ki [3]: 4 µM | Ki [2]: 15 µM

COc1cc2c(cc1OC)CN(C)CC2
Ki [2]: 29 µM | Ki [5]: 27 µM

COc1cc2c(cc1OC)C(C)=NCC2
Ki [3]: 4 µM

COc1cc2c(cc1O)CCN[C@@H]2C
Ki [3]: 77 µM

COc1cc2c(cc1OC)[C@H](C)NCC2
Ki [3]: 186 µM

COc1cc2c(c(OC)c1OC)C(C)N(C)CC2 (racemic)
Ki [3]: 160 µM

C[C@@H]1NCCc2cc(O)c(O)cc21 [SALSOLINOL HYDROBROMIDE]
Ki [3]: 284 µM

COc1cc2c(cc1O)CCN[C@H]2C [SALSOLINE HYDROCHLORIDE]
Ki [3]: 160 µM

COc1cc2c(c(OC)c1OC)C(C)=NCC2
Ki [3]: 2 µM

COc1c(OC)c(OC)c2c(C)nccc2c1OC
Ki [3]: 17 µM
